According to patent US6071946A, “Tricyclic urea compounds” (Adir et Compagnie, priority 1994, dated 2000):

How the values were obtained:
[1] = molecular target: T1, melatonin receptors (Ovis aries, UniProt P48040); assay: Binding to melatonin receptors, sheep pars tuberalis cells (competition with 2-iodo-melatonin); conditions: sheep pars tuberalis membranes
T1 construct: Sheep pars tuberalis membranes are prepared and used as target tissue; from tissue; host or cells: sheep pars tuberalis membranes
T1 sequence (P48040 whole entry): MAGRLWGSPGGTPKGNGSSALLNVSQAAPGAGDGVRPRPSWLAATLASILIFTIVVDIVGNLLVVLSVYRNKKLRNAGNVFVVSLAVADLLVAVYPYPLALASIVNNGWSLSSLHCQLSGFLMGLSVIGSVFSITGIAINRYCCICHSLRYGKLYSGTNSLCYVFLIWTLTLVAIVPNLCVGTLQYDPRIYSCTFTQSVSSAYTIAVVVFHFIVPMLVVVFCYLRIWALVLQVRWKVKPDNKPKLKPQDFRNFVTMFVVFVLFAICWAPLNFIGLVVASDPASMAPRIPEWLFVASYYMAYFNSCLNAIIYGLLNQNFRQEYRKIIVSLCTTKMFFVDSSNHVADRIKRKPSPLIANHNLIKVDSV
Description: B1) Study on Sheep Pars Tuberalis Cells
Studies of the binding of the compounds of the invention to melatonin receptors were carried out according to conventional techniques on sheep pars tuberalis cells. The pars tuberalis of the adenohypophysis is in fact characterized, in mammals, by a high density of melatonin receptors (Journal of Neuroendocrinology, 1, pp 1-4, 1989).
1) Sheep pars tuberalis membranes are prepared and used as target tissue in saturation experiments in order to determine the binding capacities and affinities for 2-(^125 I) iodomelatonin.
2) Sheep pars tuberalis membranes are used as target tissue, with the various compounds to be tested, in competitive binding experiments with respect to 2-iodo-melatonin.
Each experiment is carried out in triplicate and a range of different concentrations is tested for each compound.
The results make it possible to determine, after statistical treatment, the binding affinities of the compound tested.

[2] = tested on: C3H/He mice; assay: Free exploratory test in C3H/He mice; format: in vivo; conditions: oral
Description: Effects in the free exploratory test in C3H/He mice
Behavior was assessed in a box subdivided into six equal square exploratory units, which were interconnected by small doors. It could be divided in half lengthwise by closing partitions. Twenty-four hours before the test, each animal was randomly placed in one half of the apparatus, with the temporary partitions in place, in order to become familiarized with it. […]
numbers of attempts towards the unfamiliar compartment latency of the first entry into the unfamiliar compartment time spent in the unfamiliar compartment locomotion in the unfamiliar compartment number of rears in the unfamiliar compartment locomotion in the familiar compartment number of rears in the familiar compartment
Compounds were orally administered at doses of […] (in 1% HEC), 40 minutes before the test.
The […] group received the vehicle under the same conditions.

[3] = Foregoing pharmacological Examples (A to I), carbamides or ureas substituted for the compounds of Examples 119 and 131; conditions: in place of the compounds of Examples 119 and 131
[4] = 40 minutes before test, statistically significant for the 3 tested doses

SMILES: CC(=O)NCCc1cccc2ccc3c(c12)CC(C)O3 (stereo not shown) [Example 119, 2,3-DIHYDRO-2-METHYL-4-(2-ACETAMIDOETHYL)1-NAPHTHO[2,1-b]-FURAN]
- affinity for melatonin receptors (in words) [1]: extremely powerful affinity

SMILES: CC(=O)NCCc1coc2ccc3c(c12)CCCO3 [Example 131, N-[2-(8,9-Dihydro-7H-furo[3,2-f]chromen-1-yl)ethyl]acetamide]
- latency of the first entry into the unfamiliar compartment [2, 4]: dose-dependently reduced
- locomotion in the unfamiliar compartment [2, 4]: increased the locomotion in the unfamiliar compartment
- numbers of attempts towards the unfamiliar compartment [2, 4]: dose-dependently reduced
- number of rears in the unfamiliar compartment ([2]; at 25 mg/kg (highest dose)): significantly increased the number of rears in the unfamiliar compartment
- time spent in the unfamiliar compartment ([2]; at 5 and 25 mg/kg): significantly increased the time spent in the unfamiliar compartment

SMILES: CNC(=O)NCCc1cccc2ccc3c(c12)CC(C)O3 (stereo not shown) [Example 120, N-[2-(2,3-DIHYDRO-2-METHYL-1-NAPHTHO[2,1-b]FURAN-4-YL)ETHYL]-N'-METHYLUREA]
- results in the foregoing pharmacological Examples, compared with the compounds of Examples 119 and 131 [3]: approximately equally statistically-significant results
